Assay results from the NIST ThermoML archive (doi:10.1021/acs.jced.9b00607).

How the values were obtained:
[1] = 102 kPa, Liquid; for viscosity: Falling or rolling sphere viscometry; for mass density: Vibrating tube method
[2] = wn = mass fraction of the nth substance listed; conditions: 102 kPa, Liquid, w2 = 0; for viscosity: Falling or rolling sphere viscometry; for mass density: Vibrating tube method

OCCO [1,2-ethanediol]
[1]
Conditions	mass density [kg/m3]	viscosity [mPa·s]
283.15 K	1120	34.07
298.15 K	–	17.27
313.15 K	1099.1	9.69
323.15 K	1091.6	6.81
333.15 K	1085	5.28
343.15 K	1077.6	4.06
353.15 K	1070.1	3.21

OCCO [1,2-ethanediol] + CN(CCO)CCO
[2]
Conditions	mass density [kg/m3]	viscosity [mPa·s]
283.15 K	1120	34.07
298.15 K	–	17.27
313.15 K	1099.1	9.69
323.15 K	1091.6	6.81
333.15 K	1085	5.28
343.15 K	1077.6	4.06
353.15 K	1070.1	3.21

CN(CCO)CCO [N-methyldiethanolamine]
[1]
Conditions	mass density [kg/m3]	viscosity [mPa·s]
283.15 K	1048	198.15
298.15 K	1036.8	74.87
313.15 K	1025.3	35.05
323.15 K	1017.7	21.96
333.15 K	1010	14.83
343.15 K	1002.2	10.29
353.15 K	994.5	7.4

O [water]
[1]
Conditions	mass density [kg/m3]	viscosity [mPa·s]
283.15 K	999.9	1.32
298.15 K	997.2	0.91
313.15 K	992.3	0.67
323.15 K	988.3	0.57
333.15 K	983.5	–
343.15 K	978.1	–
353.15 K	972.3	–
